The record followed here is publication PMC9532536 (Acta Pharmaceutica Sinica. B, 2022).

SMILES strings stand for the structures.

The assay deals with GRP78 (78 kDa glucose-regulated protein) (Homo sapiens, UniProt P11021, K326A). In words: microscale thermophoresis. Format: binding.
GRP78 (78 kDa glucose-regulated protein), sequence (P11021 19-654 K326A): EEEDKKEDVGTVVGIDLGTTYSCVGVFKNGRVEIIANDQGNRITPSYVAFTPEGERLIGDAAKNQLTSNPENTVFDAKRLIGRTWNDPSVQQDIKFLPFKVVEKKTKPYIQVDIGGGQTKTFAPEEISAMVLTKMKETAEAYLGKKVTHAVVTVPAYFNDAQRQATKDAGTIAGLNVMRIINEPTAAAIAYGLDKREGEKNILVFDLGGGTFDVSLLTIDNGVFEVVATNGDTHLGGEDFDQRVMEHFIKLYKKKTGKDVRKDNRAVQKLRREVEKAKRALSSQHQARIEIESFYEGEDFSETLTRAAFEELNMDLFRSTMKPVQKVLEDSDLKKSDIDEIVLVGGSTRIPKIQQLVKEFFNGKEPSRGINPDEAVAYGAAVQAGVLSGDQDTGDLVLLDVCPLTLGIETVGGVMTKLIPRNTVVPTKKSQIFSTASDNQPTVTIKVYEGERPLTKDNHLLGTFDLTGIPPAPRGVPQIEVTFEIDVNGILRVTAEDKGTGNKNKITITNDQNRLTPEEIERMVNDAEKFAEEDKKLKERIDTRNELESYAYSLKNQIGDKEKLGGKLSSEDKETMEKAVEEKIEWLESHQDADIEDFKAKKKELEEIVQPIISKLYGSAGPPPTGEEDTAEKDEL

Broadly, the Kd is the concentration at which binding is half-saturated. A higher Kd goes with lower affinity. Molecule `CC(=O)OC(C)(C)/C=C/C(=O)[C@](C)(O)[C@H]1[C@H](O)C[C@@]2(C)[C@@H]3CC=C4[C@@H](C[C@H](O)C(=O)C4(C)C)[C@]3(C)C(=O)C[C@]12C` [CuB, cucurbitacin B] displayed a dissociation constant (Kd) of 25.4 µM.
